Holding throughout (type): cell-based
The target in test [1] is T1, human GIPR (Homo sapiens, UniProt P48546).
T1 construct: host or cells: COS-7
T1 sequence (P48546 22-466): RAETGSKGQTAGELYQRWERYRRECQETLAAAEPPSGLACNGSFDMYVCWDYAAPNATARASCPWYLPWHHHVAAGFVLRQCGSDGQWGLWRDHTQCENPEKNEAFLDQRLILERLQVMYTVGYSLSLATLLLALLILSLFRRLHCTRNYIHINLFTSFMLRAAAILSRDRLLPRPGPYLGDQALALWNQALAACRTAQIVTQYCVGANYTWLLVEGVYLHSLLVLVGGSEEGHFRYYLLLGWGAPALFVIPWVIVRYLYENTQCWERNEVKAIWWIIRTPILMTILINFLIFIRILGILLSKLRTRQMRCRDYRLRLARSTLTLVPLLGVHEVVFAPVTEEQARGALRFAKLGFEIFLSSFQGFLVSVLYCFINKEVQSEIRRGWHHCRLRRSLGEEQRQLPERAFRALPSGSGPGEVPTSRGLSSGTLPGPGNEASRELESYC
The test is described as follows: cAMP assay (HitHunter) in transiently transfected COS-7 cells expressing human GIPR. The conditions noted are these: for Emax: COS-7, normalized to highest concentration of the endogenous ligand, read-out: Efficacy GIPR (Emax); for EC50: cAMP, COS-7 cells, human GIPR. As to the method:
(§1) The next day the assay was initiated by washing with HEPES buffered saline (HBS) and followed by an incubation step with assay buffer (HBS added 1 mM isobutyl-1-methylxanthine (IBMX)) for 30 min at 37° C. The ligands were then added and incubated for an additional 30 min at 37° C. After ligand incubation, the HitHunter® CAMP assay (Eurofins DiscoverX, Fremont, […] USA) was carried out according to the manufacturer's instructions. […] The potencies (EC50 values) were determined by nonlinear regression using GraphPad Prism 9 (San Diego, California, USA). Sigmoid curves were fitted logistically. The efficacies (Emax values) were determined by normalization to the highest concentration applied of the endogenous ligand for each receptor.

In test [2] the target is T2, human GLP-2R (Homo sapiens, UniProt O95838).
T2 construct: host or cells: COS-7
T2 sequence (O95838 1-553): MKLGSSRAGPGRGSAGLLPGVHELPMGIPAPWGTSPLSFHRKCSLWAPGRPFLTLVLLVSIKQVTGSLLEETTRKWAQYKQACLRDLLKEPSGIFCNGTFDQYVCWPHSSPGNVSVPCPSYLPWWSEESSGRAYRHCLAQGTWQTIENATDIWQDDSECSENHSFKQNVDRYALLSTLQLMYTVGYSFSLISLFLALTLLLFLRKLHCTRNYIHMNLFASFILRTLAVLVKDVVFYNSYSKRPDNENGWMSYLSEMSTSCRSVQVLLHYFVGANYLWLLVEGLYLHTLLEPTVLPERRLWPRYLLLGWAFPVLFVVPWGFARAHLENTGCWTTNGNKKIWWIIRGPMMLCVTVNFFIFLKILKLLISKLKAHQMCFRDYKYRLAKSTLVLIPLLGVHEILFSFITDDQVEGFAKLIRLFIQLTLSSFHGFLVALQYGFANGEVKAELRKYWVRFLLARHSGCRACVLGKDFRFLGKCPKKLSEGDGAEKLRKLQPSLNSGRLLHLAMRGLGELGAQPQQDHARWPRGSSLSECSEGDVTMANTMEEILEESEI
The test is described as follows: cAMP assay (HitHunter) in transiently transfected COS-7 cells expressing human GLP-2R. The following applies: for Emax: COS-7, normalized to highest concentration of the endogenous ligand, read-out: Efficacy GLP-2R (Emax). The procedure:
as §1

For test [3], the target named is T3, human GLP-1R (Homo sapiens, UniProt P43220).
T3 construct: host or cells: COS-7
As to the kind of experiment: cAMP assay (HitHunter) in transiently transfected COS-7 cells expressing human GLP-1R. The conditions noted are these: for Emax: COS-7, normalized to highest concentration of the endogenous ligand, read-out: Efficacy GLP-1R (Emax). The procedure:
as §1

[4] abbreviates: cAMP, COS-7 cells, human GLP-2R, read-out: EC50 (nM) GLP-2R.
Where [5] appears, read: cAMP, COS-7 cells, human GLP-1R, read-out: EC50 (nM) GLP-1R.

The values below come from patent US20250304644A1, “PEPTIDES TRIPLE AGONISTS OF GIP, GLP-1 AND GLP-2” (BAINAN BIOTECH APS, priority 2021, published 2025).

Like-named read-outs stand apart in the source and are kept apart here. Where a SMILES comes first, the peptide text is derived from it. [ ]: non-standard residue; d: D form. The star is where a group is joined. Decanoyl = CCCCCCCCCC(=O)*; Aib = CC(C)(N)C(=O)O

T3 sequence (P43220 24-463): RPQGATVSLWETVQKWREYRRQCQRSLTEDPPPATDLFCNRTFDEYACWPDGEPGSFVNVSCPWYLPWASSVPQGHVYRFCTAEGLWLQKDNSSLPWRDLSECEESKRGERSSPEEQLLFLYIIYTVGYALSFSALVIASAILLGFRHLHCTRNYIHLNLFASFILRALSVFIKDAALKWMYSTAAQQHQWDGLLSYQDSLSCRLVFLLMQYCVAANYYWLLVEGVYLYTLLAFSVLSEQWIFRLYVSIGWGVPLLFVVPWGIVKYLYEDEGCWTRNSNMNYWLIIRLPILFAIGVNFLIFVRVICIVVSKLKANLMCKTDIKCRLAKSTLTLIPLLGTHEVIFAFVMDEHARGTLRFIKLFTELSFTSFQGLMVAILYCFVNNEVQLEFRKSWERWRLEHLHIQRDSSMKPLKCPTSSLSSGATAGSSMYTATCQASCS

For the compound `CCCCCCCCCC(=O)NCCCC[C@H](NC(=O)[C@@H](NC(=O)[C@@H](NC(=O)[C@H](CCCCN)NC(=O)[C@@H](NC(=O)[C@H](CCC(N)=O)NC(=O)[C@@H](NC(=O)[C@H](CC(C)C)NC(=O)[C@H](Cc1c[nH]c2ccccc12)NC(=O)[C@H](CC(N)=O)NC(=O)[C@@H](NC(=O)[C@H](Cc1ccccc1)NC(=O)[C@H](CC(=O)O)NC(=O)[C@H](CCCNC(=N)N)NC(=O)[C@H](C)NC(=O)[C@H](C)NC(=O)[C@H](CC(C)C)NC(=O)[C@H](C)NC(=O)[C@H](CC(=O)O)NC(=O)[C@H](CC(C)C)NC(=O)[C@@H](NC(=O)[C@@H](NC(=O)[C@H](CO)NC(=O)[C@H](Cc1ccc(O)cc1)NC(=O)[C@H](CC(=O)O)NC(=O)[C@H](CO)NC(=O)[C@@H](NC(=O)[C@H](Cc1ccccc1)NC(=O)[C@@H](NC(=O)CNC(=O)[C@H](CC(=O)O)NC(=O)C(C)(C)NC(=O)[C@@H](N)Cc1c[nH]cn1)[C@@H](C)O)[C@@H](C)CC)[C@@H](C)O)[C@@H](C)CC)[C@@H](C)CC)[C@@H](C)CC)[C@@H](C)O)[C@@H](C)CC)[C@@H](C)O)C(N)=O` [Compound 5] (H-H[Aib]DGTFISDYSTILDALAARDFINWLIQTKITK(Decanoyl)-NH2), the Emax in test [1] stood at 111%; in test [2], 110%; in test [3], 105%. Moreover, the figures for the EC50 in test [1], in test [2] (setting [4]) and in test [3] (setting [5]) were 0.158 nM, 2 nM and 1.78 nM, respectively.
Consider `CCCCCCCCCC(=O)NCCCC[C@H](NC(=O)[C@@H](NC(=O)[C@@H](NC(=O)[C@H](CCCCN)NC(=O)[C@@H](NC(=O)[C@H](CCC(N)=O)NC(=O)[C@@H](NC(=O)[C@H](CC(C)C)NC(=O)[C@H](Cc1c[nH]c2ccccc12)NC(=O)[C@H](CC(N)=O)NC(=O)[C@@H](NC(=O)[C@H](Cc1ccccc1)NC(=O)[C@H](CC(=O)O)NC(=O)[C@H](CCCNC(=N)N)NC(=O)[C@H](C)NC(=O)[C@H](C)NC(=O)[C@H](CC(C)C)NC(=O)[C@H](CC(N)=O)NC(=O)[C@H](CCC(=O)O)NC(=O)[C@H](CC(C)C)NC(=O)[C@@H](NC(=O)[C@@H](NC(=O)[C@H](CO)NC(=O)[C@H](Cc1ccc(O)cc1)NC(=O)[C@H](CC(=O)O)NC(=O)[C@H](CO)NC(=O)[C@@H](NC(=O)[C@H](Cc1ccccc1)NC(=O)[C@@H](NC(=O)CNC(=O)[C@H](CC(=O)O)NC(=O)C(C)(C)NC(=O)[C@@H](N)Cc1c[nH]cn1)[C@@H](C)O)[C@@H](C)CC)[C@@H](C)O)[C@@H](C)CC)[C@@H](C)CC)[C@@H](C)CC)[C@@H](C)O)[C@@H](C)CC)[C@@H](C)O)C(N)=O` [Compound 7] (H-H[Aib]DGTFISDYSTILENLAARDFINWLIQTKITK(Decanoyl)-NH2), for which the Emax stood at 96% in test [1], 97% in test [2] and 95% in test [3]. Moreover, the EC50 stood at 0.794 nM in test [1] and 2.82 nM in test [3] (setting [5]).
As to `CCCCCCCCCC(=O)NCCCC[C@H](NC(=O)[C@@H](NC(=O)[C@@H](NC(=O)[C@H](CCCCN)NC(=O)[C@@H](NC(=O)[C@H](CCC(N)=O)NC(=O)[C@@H](NC(=O)[C@H](CC(C)C)NC(=O)[C@H](Cc1c[nH]c2ccccc12)NC(=O)[C@H](CCC(=O)O)NC(=O)[C@@H](NC(=O)[C@H](Cc1ccccc1)NC(=O)[C@H](CC(=O)O)NC(=O)[C@H](CCCNC(=N)N)NC(=O)[C@H](C)NC(=O)[C@H](C)NC(=O)[C@H](CC(C)C)NC(=O)[C@H](CC(N)=O)NC(=O)[C@H](CC(=O)O)NC(=O)[C@H](CC(C)C)NC(=O)[C@@H](NC(=O)[C@@H](NC(=O)[C@H](CO)NC(=O)[C@H](Cc1ccc(O)cc1)NC(=O)[C@H](CC(=O)O)NC(=O)[C@H](CO)NC(=O)[C@@H](NC(=O)[C@H](Cc1ccccc1)NC(=O)[C@@H](NC(=O)CNC(=O)[C@H](CC(=O)O)NC(=O)C(C)(C)NC(=O)[C@@H](N)Cc1c[nH]cn1)[C@@H](C)O)[C@@H](C)CC)[C@@H](C)O)[C@@H](C)CC)[C@@H](C)CC)[C@@H](C)CC)[C@@H](C)O)[C@@H](C)CC)[C@@H](C)O)C(N)=O` [Compound 9], the Emax in test [1] turned out to be 104%; in test [2], 108%; in test [3], 105%. In addition, the EC50 in test [2] (setting [4]) worked out at 11.2 nM.
Consider `CCCCCCCCCC(=O)NCCCC[C@H](NC(=O)[C@@H](NC(=O)[C@@H](NC(=O)[C@H](CCCCN)NC(=O)[C@@H](NC(=O)[C@H](CCC(N)=O)NC(=O)[C@@H](NC(=O)[C@H](CC(C)C)NC(=O)[C@H](Cc1c[nH]c2ccccc12)NC(=O)[C@H](CC(N)=O)NC(=O)[C@@H](NC(=O)[C@H](Cc1ccccc1)NC(=O)[C@H](CC(=O)O)NC(=O)[C@H](CCCNC(=N)N)NC(=O)[C@H](C)NC(=O)[C@H](C)NC(=O)[C@H](CC(C)C)NC(=O)[C@H](CC(N)=O)NC(=O)[C@H](CC(=O)O)NC(=O)[C@H](CC(C)C)NC(=O)[C@@H](NC(=O)[C@@H](NC(=O)[C@H](CO)NC(=O)[C@H](Cc1ccc(O)cc1)NC(=O)[C@H](CC(=O)O)NC(=O)[C@H](CO)NC(=O)[C@@H](NC(=O)[C@H](Cc1ccccc1)NC(=O)[C@@H](NC(=O)CNC(=O)[C@H](CC(=O)O)NC(=O)C(C)(C)NC(=O)[C@@H](N)Cc1c[nH]cn1)[C@@H](C)O)[C@@H](C)CC)[C@@H](C)CC)[C@@H](C)CC)[C@@H](C)CC)[C@@H](C)CC)[C@@H](C)O)[C@@H](C)CC)[C@@H](C)O)C(N)=O` [Compound 10] (H-H[Aib]DGTFISDYSIILDNLAARDFINWLIQTKITK(Decanoyl)-NH2), for which the Emax in test [1] was 127%; in test [2] it was 103%; in test [3], 99%. Besides, the EC50 turned out to be 11.2 nM in test [2] and 3.98 nM in test [3].
As to `CCCCCCCCCC(=O)NCCCC[C@H](NC(=O)[C@@H](NC(=O)[C@@H](NC(=O)[C@H](CCCCN)NC(=O)[C@@H](NC(=O)[C@H](CCC(N)=O)NC(=O)[C@@H](NC(=O)[C@H](CC(C)C)NC(=O)[C@H](Cc1c[nH]c2ccccc12)NC(=O)[C@H](CC(N)=O)NC(=O)[C@@H](NC(=O)[C@H](Cc1ccccc1)NC(=O)[C@H](CC(=O)O)NC(=O)[C@H](CCCNC(=N)N)NC(=O)[C@H](C)NC(=O)[C@H](C)NC(=O)[C@H](CC(C)C)NC(=O)[C@H](CC(N)=O)NC(=O)[C@H](CC(=O)O)NC(=O)[C@H](CC(C)C)NC(=O)[C@@H](NC(=O)[C@@H](NC(=O)[C@H](CO)NC(=O)[C@H](Cc1ccc(O)cc1)NC(=O)[C@H](CC(=O)O)NC(=O)[C@H](CO)NC(=O)[C@@H](NC(=O)[C@H](Cc1ccccc1)NC(=O)[C@@H](NC(=O)CNC(=O)[C@H](CCC(=O)O)NC(=O)C(C)(C)NC(=O)[C@@H](N)Cc1c[nH]cn1)[C@@H](C)O)[C@@H](C)CC)[C@@H](C)O)[C@@H](C)CC)[C@@H](C)CC)[C@@H](C)CC)[C@@H](C)O)[C@@H](C)CC)[C@@H](C)O)C(N)=O` [Compound 11] (H-H[Aib]EGTFISDYSTILDNLAARDFINWLIQTKITK(Decanoyl)-NH2), the Emax came to 89% in test [1], 68% in test [2] and 76% in test [3]. Moreover, the EC50 in test [2] (setting [4]) was determined as 25.1 nM.
